From patent US12545658B2, “Pyridine derivatives as calcium-activated chloride channel modulators” (TMEM16A LIMITED, priority 2019, dated 2026)

Target: T1, human TMEM16A (TMEM16Aabc variant) (Homo sapiens, UniProt Q5XXA6)
T1 construct: human TMEM16A (TMEM16Aabc variant)
T1 sequence (Q5XXA6 1-986): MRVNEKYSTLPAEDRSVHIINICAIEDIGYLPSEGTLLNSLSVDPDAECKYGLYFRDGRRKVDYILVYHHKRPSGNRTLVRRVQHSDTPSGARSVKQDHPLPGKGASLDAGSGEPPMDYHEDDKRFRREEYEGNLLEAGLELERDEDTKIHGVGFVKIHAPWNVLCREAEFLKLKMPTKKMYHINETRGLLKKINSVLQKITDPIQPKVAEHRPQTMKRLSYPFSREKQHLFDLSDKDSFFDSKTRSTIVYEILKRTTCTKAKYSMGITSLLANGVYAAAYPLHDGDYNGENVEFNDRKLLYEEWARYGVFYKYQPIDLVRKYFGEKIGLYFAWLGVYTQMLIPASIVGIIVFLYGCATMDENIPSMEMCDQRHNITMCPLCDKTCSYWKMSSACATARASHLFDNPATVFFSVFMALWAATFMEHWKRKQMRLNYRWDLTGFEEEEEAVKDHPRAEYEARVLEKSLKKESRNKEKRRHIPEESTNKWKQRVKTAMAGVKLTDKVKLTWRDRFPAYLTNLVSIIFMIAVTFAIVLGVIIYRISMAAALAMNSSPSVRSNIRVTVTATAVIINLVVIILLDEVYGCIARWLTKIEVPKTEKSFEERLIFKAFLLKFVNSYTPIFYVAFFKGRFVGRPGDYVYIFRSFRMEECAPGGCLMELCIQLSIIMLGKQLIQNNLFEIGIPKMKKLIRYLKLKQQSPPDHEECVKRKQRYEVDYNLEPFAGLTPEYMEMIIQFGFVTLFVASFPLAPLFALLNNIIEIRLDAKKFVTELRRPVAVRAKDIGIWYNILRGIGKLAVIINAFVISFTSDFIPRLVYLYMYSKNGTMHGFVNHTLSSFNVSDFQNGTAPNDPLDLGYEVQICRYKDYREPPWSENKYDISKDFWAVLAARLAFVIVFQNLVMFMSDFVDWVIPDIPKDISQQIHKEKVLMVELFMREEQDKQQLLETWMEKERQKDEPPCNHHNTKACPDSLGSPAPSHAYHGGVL
Assay: Automated whole-cell patch clamp (QPatch) TMEM16A potentiator assay in FRT cells stably expressing human TMEM16A
Format: cell-based
Conditions: for QPatch TMEM16A % Potentiation @ 370 nM: 370 nM test compound; for QPatch TMEM16A % Potentiation @ 370 nM / QPatch TMEM16A % Potentation @ 3.3 μM: percentage increase of baseline TMEM16A current; for QPatch TMEM16A % Potentation @ 3.3 μM: 3.3 μM test compound; for EC50: FRT-TMEM16A cells, whole-cell patch clamp, peak current at +70 mV, intracellular calcium at EC20
Method: Fisher rat thyroid (FRT) cells stably expressing human TMEM16A (TMEM16Aabc variant; Dr Luis Galietta, Insituto Giannina, Italy) were cultured in T-75 flasks in Hams F-12 media with Coon's modification (Sigma) supplemented with 10% (v/v) foetal bovine serum, penicillin-streptomycin (10,000 U/mL/10000 μg/mL), G-418 (750 μg/mL), L-glutamine (2 mM) and sodium bicarbonate solution (7.5% v/v). At ˜90% confluence cells were harvested for experiments by detachment with a 2:1 (v/v) mixture of Detachin (BMS Biotechnology) and 0.25% (w/v) trypsin-EDTA.
FRT-TMEM16A cells were whole-cell patch clamped using an automated planar patch clamp system (Qpatch, Sophion). Briefly, once high resistance (GOhm) seals were established between the cells and the planar recording array the patch was ruptured using suction pulses to establish the whole-cell recording configuration of the patch clamp technique. The assay employed the following solutions (all reagents Sigma): Intracellular solution (mM): N-methyl-D-glucamine 130, CaCl2 18.2, MgCl2 1, HEPES 10, EGTA 10, BAPTA 20, Mg-ATP 2, pH 7.25, 325 mOsm with sucrose.
Extracellular solution (mM): N-methyl-D-glucamine 130, CaCl2 2, MgCl2 1, HEPES 10, pH 7.3, 320 mOsm with sucrose.
The intracellular solution buffers intracellular calcium at levels required to give ˜20% activation of the maximal TMEM16A mediated current (EC20 for calcium ions). Cells were voltage clamped at a holding potential of −70 mV and a combined voltage step (to +70 mV)/ramp (−90 my to +90 mV) was applied at 0.05 Hz. After a period of current stabilisation test compounds, solubilised in 100% (v/v) DMSO and subsequently diluted into extracellular solution, were applied to generate a cumulative concentration response curve. Each concentration of test compound was incubated for 5 minutes before addition of the next concentration. After the final concentration was tested a supramaximal concentration of either a known active positive modulator or the TMEM16A inhibitor, CaCCinhA01 (Del La Fuente et al, 2008) was added to define the upper and lower limits of the assay.
Compound activity was quantified by measuring the increase in current upon compound addition and expressing this as a percentage increase of baseline TMEM16A current level.
In FIG. 1, IBL equals baseline current, I[#1] equals the peak current during test compound concentration 1 incubation period and so on.
Peak TMEM16A current at +70 mV was plotted as a function of time over the assay period. Baseline current (IBL) was measured after a period of stabilisation. The increase in current for each compound addition was determined by taking the peak current during the incubation period and subtracting the current from the previous recording period and then expressing this as a percentage of the baseline current (% potentiation). For test compound concentration 1 in FIG. 1 this is: (I[#1]−IBL/IBL)×100 For each additional concentration tested the increase in current was determined by subtracting the current from the previous incubation period and normalising the baseline value—for test concentration 2 in FIG. 1 this is: (I[#2]−I[#1])/IBL)×100 The values for each test concentration were plotted as a cumulative function of concentration eg. for test concentration two this would be the sum of the peak changes measured during concentration one plus concentration two.

| SMILES | QPatch TMEM16A % Potentiation @ 370 nM [%] | QPatch TMEM16A % Potentation @ 3.3 μM [%] | EC50 [nM] | EC50 compared with Compound B (indole compounds versus comparator Compound B) | maximum potentiation of TMEM16A compared with Compound B (versus comparator Compound B) |
| --- | --- | --- | --- | --- | --- |
| C#CC(C)(C)NC(=O)c1cc(NC(=O)Cc2cccc3[nH]ncc23)ccn1 [Compound A, reference compound] | 43 | 223 | 1930 |  |  |
| C#CC(C)(C)NC(=O)c1cc(NC(=O)Cc2ccc3cc[nH]c3c2)ccn1 [Example 1, N-(1,1-Dimethylprop-2-ynyl)-4-[[2-(1H-indol-6-yl)acetyl]amino]pyridine-2-carboxamide] | 50 | 38 | 20 | lower EC50 values than Compound B |  |
| O=C(Cc1ccc2cc[nH]c2c1)Nc1ccnc(C(=O)NC2(C(F)(F)F)CC2)c1 [Example 1.1, 4-[[2-(1H-indol-6-yl)acetyl]amino]-N-[1-(trifluoromethyl)cyclopropyl]pyridine-2-carboxamide] | 145 | 173 | 70 |  | improved maximum potentiation of TMEM16A |
| CC(C)(C)NC(=O)c1cc(NC(=O)Cc2ccc3cn[nH]c3c2)ccn1 [Example 2, N-tert-Butyl-4-[[2-(1H-indazol-6-yl)acetyl]amino]pyridine-2-carboxamide] | 87 | 131 | 180 |  |  |
| C#CC(C)(C)NC(=O)c1cc(NC(=O)Cc2ccc3cn[nH]c3c2)ccn1 [Example 3, N-(1,1-Dimethylprop-2-ynyl)-4-[[2-(1H-indazol-6-yl)acetyl]amino]pyridine-2-carboxamide] | 68 | 96 | 20 |  |  |
| C#CC1(NC(=O)c2cc(NC(=O)Cc3ccc4cn[nH]c4c3)ccn2)CCCC1 [Example 4, N-(1-Ethynylcyclopentyl)-4-[[2-(1H-indazol-6-yl)acetyl]amino]pyridine-2-carboxamide] | 96 | 237 | 10 |  |  |
| CC(C)(NC(=O)c1cc(NC(=O)Cc2ccc3cn[nH]c3c2)ccn1)C(F)F [Example 5, N-(2,2-Difluoro-1,1-dimethyl-ethyl)-4-[[2-(1H-indazol-6-yl)acetyl]amino] pyridine-2-carboxamide] | 80 | 104 | 110 |  |  |
| CC(C)(C)NC(=O)c1cc(NC(=O)Cc2cc3[nH]ncc3cc2F)ccn1 [Example 6, N-tert-Butyl-4-[[2-(5-fluoro-1H-indazol-6-yl)acetyl]amino]pyridine-2-carboxamide] | 91 | 164 | 230 |  |  |
| CC(C)(C)NC(=O)c1cc(NC(=O)Cc2cc(F)c3cn[nH]c3c2)ccn1 [Example 7, N-tert-Butyl-4-[[2-(4-fluoro-1H-indazol-6-yl)acetyl]amino]pyridine-2-carboxamide] | 88 | 95 | 70 |  |  |

The remaining lines, values ahead:

| QPatch TMEM16A % Potentiation @ 370 nM [%] | QPatch TMEM16A % Potentation @ 3.3 μM [%] | EC50 [nM] | EC50 compared with Compound B (indole compounds versus comparator Compound B) | maximum potentiation of TMEM16A compared with Compound B (versus comparator Compound B) | SMILES |
| --- | --- | --- | --- | --- | --- |
| 96 | 118 | 90 |  |  | CC(C)(NC(=O)c1cc(NC(=O)Cc2ccc3cn[nH]c3c2)ccn1)C(F)(F)F [Example 4.1, 4-[[2-(1H-Indazol-6-yl)acetyl]amino]-N-(2,2,2-trifluoro-1,1-dimethyl-ethyl)pyridine-2-carboxamide] |
| 112 | 155 | 100 |  |  | O=C(Cc1ccc2cn[nH]c2c1)Nc1ccnc(C(=O)NC2(C(F)(F)F)CC2)c1 [Example 4.2, 4-[[2-(1H-Indazol-6-yl)acetyl]amino]-N-[1-(trifluoromethyl)cyclopropyl]pyridine-2-carboxamide] |
| 173 | 226 | 50 |  |  | CC1(NC(=O)c2cc(NC(=O)Cc3ccc4cn[nH]c4c3)ccn2)CC(F)(F)C1 [Example 4.3, N-(3,3-Difluoro-1-methyl-cyclobutyl)-4-[[2-(1H-indazol-6-yl)acetyl]amino]pyridine-2-carboxamide] |
| 76 | 110 | 150 |  |  | O=C(Cc1ccc2cn[nH]c2c1)Nc1ccnc(C(=O)NC2(C(F)(F)F)CCC2)c1 [Example 5.1, 4-[[2-(1H-Indazol-6-yl)acetyl]amino]-N-[1-(trifluoromethyl)cyclobutyl]pyridine-2-carboxamide] |
| 69 | 113 | 250 |  |  | O=C(Cc1ccc2cn[nH]c2c1)Nc1ccnc(C(=O)NC2CCCC2(F)F)c1 (centres unmarked) [Example 5.3, N-(2,2-Difluorocyclopentyl)-4-[[2-(1H-indazol-6-yl)acetyl]amino]pyridine-2-carboxamide] |
| 107 | 153 | 140 |  |  | O=C(Cc1cc2[nH]ncc2cc1F)Nc1ccnc(C(=O)NC2(C(F)(F)F)CC2)c1 [Example 6.1, 4-[[2-(5-Fluoro-1H-indazol-6-yl)acetyl]amino]-N-[1-(trifluoromethyl)cyclopropyl]pyridine-2-carboxamide] |
| 46 | 70 | 310 |  |  | O=C(Cc1cc2[nH]ncc2cc1F)Nc1ccnc(C(=O)NC2CCCC2(F)F)c1 (centres unmarked) [Example 6.2, N-(2,2-Difluorocyclopentyl)-4-[[2-(5-fluoro-1H-indazol-6-yl)acetyl]amino]pyridine-2-carboxamide] |
| 172 | 220 | 110 |  |  | O=C(Cc1cc(Cl)c2cn[nH]c2c1)Nc1ccnc(C(=O)NC2(C(F)(F)F)CC2)c1 [Example 6.3, 4-[[2-(4-Chloro-1H-indazol-6-yl)acetyl]amino]-N-[1-(trifluoromethyl)cyclopropyl]pyridine-2-carboxamide] |
| 55 | 78 | 20 |  |  | C#CC1(NC(=O)c2cc(NC(=O)Cc3cc(Cl)c4cn[nH]c4c3)ccn2)CCCC1 [Example 6.4, 4-[[2-(4-Chloro-1H-indazol-6-yl)acetyl]amino]-N-(1-ethynylcyclopentyl) pyridine-2-carboxamide] |
